PMC6221957, “Phenol Derivatives From the Sponge-Derived Fungus Didymellaceae sp. SCSIO F46” (Frontiers in Chemistry, 2018)

How the values were obtained:
[1] = Cytotoxicity assay (CCK-8), K562; type: cell-based; settings: human; K562 cells, CCK-8, 72 h; read-out: Cytotoxic results IC50, K562
Protocol: (§1) Cytotoxic activities of the isolated compounds 1–17 and trichostatin A (TSA, positive control) against 10 tumor cell lines (K562, MCF-7, A549, Huh-7, H1975, HeLa, HL7702, HL60, MOLT-4, and DU145) were tested. […]. Cytotoxicity was assayed with the CCK-8 (Dojindo, Japan) method. 10 Cell lines K562, MCF-7, A549, Huh-7, H1975, Hela, HL7702, HL60, MOLT-4, and DU145 were purchased from Shanghai Cell Bank, Chinese Academy of Sciences. Cells were routinely grown and maintained in RPMI or DMEM media with 10% fetal bovine serum and with 1% penicillin/streptomycin. All cell lines were incubated in a Thermo/ Forma Scientific CO2 water-jacketed incubator with 5% CO2 in air at 37 °C. A cell viability assay was determined with the CCK-8 (Dojindo, Japan) assay. Cells were seeded at a density of 400−800 cells/well in 384-well plates and treated with various concentrations of compounds or solvent control. After 72 h incubation, CCK-8 reagent was added, and absorbance was measured at 450 nm using an Envision 2104 multilabel reader (PerkinElmer, USA). Dose−response curves were plotted to determine the IC50 values using Prism 5.0 (GraphPad Software Inc., USA).

[2] = Cytotoxicity assay (CCK-8), MCF-7; type: cell-based; settings: human; MCF-7 cells, CCK-8, 72 h; read-out: Cytotoxic results IC50, MCF-7
Protocol: as §1

[3] = Cytotoxicity assay (CCK-8), A549; type: cell-based; settings: human; A549 cells, CCK-8, 72 h; read-out: Cytotoxic results IC50, A549
Protocol: as §1

[4] = Cytotoxicity assay (CCK-8), Huh-7; type: cell-based; settings: human; Huh-7 cells, CCK-8, 72 h; read-out: Cytotoxic results IC50, Huh-7
Protocol: as §1

[5] = Cytotoxicity assay (CCK-8), H1975; type: cell-based; settings: human; H1975 cells, CCK-8, 72 h; read-out: Cytotoxic results IC50, H1975
Protocol: as §1

[6] = Cytotoxicity assay (CCK-8), HeLa; type: cell-based; settings: human; HeLa cells, CCK-8, 72 h; read-out: Cytotoxic results IC50, HeLa
Protocol: as §1

[7] = Cytotoxicity assay (CCK-8), HL7702; type: cell-based; settings: human; HL7702 cells, CCK-8, 72 h; read-out: Cytotoxic results IC50, HL7702
Protocol: as §1

[8] = Cytotoxicity assay (CCK-8), HL60; type: cell-based; settings: human; HL60 cells, CCK-8, 72 h; read-out: Cytotoxic results IC50, HL60
Protocol: as §1

[9] = Cytotoxicity assay (CCK-8), MOLT-4; type: cell-based; settings: human; MOLT-4 cells, CCK-8, 72 h; read-out: Cytotoxic results IC50, MOLT-4
Protocol: as §1

[10] = Cytotoxicity assay (CCK-8), DU145; type: cell-based; settings: human; DU145 cells, CCK-8, 72 h; read-out: Cytotoxic results IC50, DU145
Protocol: as §1

[11] = tested on: 10 tumor cell lines (K562, MCF-7, A549, Huh-7, H1975, HeLa, HL7702, HL60, MOLT-4, and DU145); assay: Cytotoxicity against the panel of 10 tumor cell lines (summary statements); type: cell-based
Protocol: as §1

K562 = assay: Cytotoxicity assay (CCK-8), K562; type: cell-based; settings: K562 cells, CCK-8, 72 h; read-out: Cytotoxic results IC50, K562
Protocol: as §1

MCF-7 = assay: Cytotoxicity assay (CCK-8), MCF-7; type: cell-based; settings: MCF-7 cells, CCK-8, 72 h; read-out: Cytotoxic results IC50, MCF-7
Protocol: as §1

A549 = assay: Cytotoxicity assay (CCK-8), A549; type: cell-based; settings: A549 cells, CCK-8, 72 h; read-out: Cytotoxic results IC50, A549
Protocol: as §1

Huh-7 = assay: Cytotoxicity assay (CCK-8), Huh-7; type: cell-based; settings: Huh-7 cells, CCK-8, 72 h; read-out: Cytotoxic results IC50, Huh-7
Protocol: as §1

H1975 = assay: Cytotoxicity assay (CCK-8), H1975; type: cell-based; settings: H1975 cells, CCK-8, 72 h; read-out: Cytotoxic results IC50, H1975
Protocol: as §1

HeLa = assay: Cytotoxicity assay (CCK-8), HeLa; type: cell-based; settings: HeLa cells, CCK-8, 72 h; read-out: Cytotoxic results IC50, HeLa
Protocol: as §1

HL7702 = assay: Cytotoxicity assay (CCK-8), HL7702; type: cell-based; settings: HL7702 cells, CCK-8, 72 h; read-out: Cytotoxic results IC50, HL7702
Protocol: as §1

HL60 = assay: Cytotoxicity assay (CCK-8), HL60; type: cell-based; settings: HL60 cells, CCK-8, 72 h; read-out: Cytotoxic results IC50, HL60
Protocol: as §1

MOLT-4 = assay: Cytotoxicity assay (CCK-8), MOLT-4; type: cell-based; settings: MOLT-4 cells, CCK-8, 72 h; read-out: Cytotoxic results IC50, MOLT-4
Protocol: as §1

DU145 = assay: Cytotoxicity assay (CCK-8), DU145; type: cell-based; settings: DU145 cells, CCK-8, 72 h; read-out: Cytotoxic results IC50, DU145
Protocol: as §1

COX-2 = target: T1, COX-2 (Ovis aries, UniProt P79208); assay: COX-2 inhibitory activity assay (COX (ovine) inhibitor screening kit); type: biochemical; settings: enzyme immunoassay
T1 construct: purchased
T1 sequence (P79208 17-603): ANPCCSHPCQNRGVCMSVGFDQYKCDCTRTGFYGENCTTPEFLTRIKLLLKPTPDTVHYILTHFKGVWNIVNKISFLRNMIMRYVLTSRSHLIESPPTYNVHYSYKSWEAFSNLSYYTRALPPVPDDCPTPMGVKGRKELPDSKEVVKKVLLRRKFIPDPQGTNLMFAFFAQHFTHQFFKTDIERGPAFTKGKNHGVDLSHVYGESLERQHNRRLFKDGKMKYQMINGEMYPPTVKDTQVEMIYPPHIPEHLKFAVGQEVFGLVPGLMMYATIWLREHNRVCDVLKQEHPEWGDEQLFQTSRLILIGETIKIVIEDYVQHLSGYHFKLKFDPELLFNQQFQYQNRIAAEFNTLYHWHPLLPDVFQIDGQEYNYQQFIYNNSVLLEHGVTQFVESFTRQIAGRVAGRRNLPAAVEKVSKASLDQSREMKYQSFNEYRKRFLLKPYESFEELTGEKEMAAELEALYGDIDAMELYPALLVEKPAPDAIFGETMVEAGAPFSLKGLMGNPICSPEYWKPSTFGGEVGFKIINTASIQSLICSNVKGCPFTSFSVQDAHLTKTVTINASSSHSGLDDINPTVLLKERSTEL
Protocol: According to the manufacturer's instructions. The test compounds were dissolved in DMSO and the final concentration was set as 10 μM.
The COX-2 enzyme is a well-established target for anti-inflammatory evaluation. […] The COX-2 enzyme catalyses the biosynthesis of PGH2 from arachidonic acid. In this assay, the PGF2a produced by the reduction of PGH2 with stannous chloride (SnCl2) was measured in this enzyme immunoassay. The stock solutions were prepared in dimethyl sulfoxide, and the final concentration was set as 10 mM for the isolated compounds. The percentage inhibition was calculated by comparison with control incubations.

[12] = Cytotoxicity against the panel of 10 tumor cell lines (summary statements); type: cell-based; settings: human
Protocol: as §1

Row | SMILES | IC50 at 72 h [1] | IC50 at 72 h [2] | IC50 at 72 h [3] | IC50 at 72 h [4] | IC50 at 72 h [5] | IC50 at 72 h [6] | IC50 at 72 h [7] | IC50 at 72 h [8] | IC50 at 72 h [9] | IC50 at 72 h [10] | other results
1 | Cc1cc(CO)c2c(=O)c3c(O)cccc3oc2c1 [Compound 8, 1-Hydroxy-6-methyl-8-hydroxy-methylxanthone] | > 200 µM | 141 µM | 128 µM | 122 µM | > 200 µM | 14.3 µM | 33.8 µM | > 200 µM | > 200 µM | > 200 µM | Cytotoxicities against HeLa and HL7702 cells (in words) ([11]; HeLa and HL7702 cells): weak selective cytotoxicities
2 | CC(/C=C/C(=O)NO)=C\[C@@H](C)C(=O)c1ccc(N(C)C)cc1 [TSA, trichostatin A, reference compound] |  |  |  |  |  |  |  |  |  |  | IC50 (K562): 0.1 µM; IC50 (MCF-7): 0.7 µM; IC50 (A549): 0.3 µM; IC50 (Huh-7): 0.08 µM; IC50 (H1975): 0.09 µM; IC50 (HeLa): 0.08 µM; IC50 (HL7702): 0.09 µM; IC50 (HL60): 0.04 µM; IC50 (MOLT-4): 0.03 µM; IC50 (DU145): 0.04 µM
3 | Cc1cc(O)c(O)c2oc3c(C(=O)O)cc(O)cc3c12 [Compound 6, Porric acid E] |  |  |  |  |  |  |  |  |  |  | IC50 (COX-2): 3.3 µM
4 | COC(=O)c1c(C)cc(O)cc1Oc1cc(C)cc(O)c1 [Compound 3, Diorcinol L] | 43.5 µM | 10.5 µM | 17.7 µM | 5.7 µM | 15.3 µM | 7.1 µM | 68.2 µM | 9.6 µM | > 200 µM | 9.1 µM | IC50 at 72 h ([12]; range over Huh-7, HeLa, DU145 and HL60 cells, read-out: Cytotoxicities IC50 values against Huh-7, HeLa, DU145 and HL60 cells): 5.7 to 9.6 µM; IC50 at 72 h ([12]; range over the tumor cell lines of Table 3, read-out: Cytotoxicities IC50 values in the range over the cell lines): 5.7 to 68.2 µM; Activities against other five cell lines (in words) ([11]; cell lines other than Huh-7, HeLa, DU145 and HL60): weak activities
